This test has as its system Hepatitis C virus. Kind of test: Antiviral activity against Hepatitis C virus genotype 1a expressing neomycin phosphotransferase after 3 days by luciferase reporter gene assay. It is filed as functional, organism-based, Hepacivirus hominis. The following applies: subtype 1a, 72 h. (In general: In a reporter assay the amount or activity of a reporter protein is the signal.)

For the molecule `COC(=O)N[C@H](C(=O)N1CC2(C[C@H]1c1nc3cc(-c4ccc5cc(-c6cnc([C@@H]7C[C@H]8C[C@H]8N7C(=O)[C@@H](NC(=O)OC)C(C)C)[nH]6)ccc5c4)ccc3c(=O)[nH]1)OCCCO2)C(C)C`, the response was half-maximal at 26 pM (EC50).

Turning to `COC(=O)N[C@H](C(=O)N1CCC[C@H]1c1ncc(-c2ccc3cc(-c4ccc5c(=O)[nH]c([C@@H]6C[C@@H]7CCCC[C@@H]7N6C(=O)[C@@H](NC(=O)OC)C(C)C)nc5c4)ccc3c2)[nH]1)C(C)C`, a half-maximal response (EC50) required 6 pM. In the case of `COC(=O)N[C@H](C(=O)N1CCC[C@H]1c1nc2cc(-c3ccc4cc(-c5cnc([C@@H]6C[C@H]7C[C@H]7N6C(=O)[C@@H](NC(=O)OC)C(C)C)[nH]5)ccc4c3)ccc2c(=O)[nH]1)C(C)C` it was 6 pM; in that of `COC(=O)N[C@H](C(=O)N1CC2(C[C@H]1c1ncc(-c3ccc4cc(-c5ccc6c(=O)[nH]c([C@@H]7C[C@H]8C[C@H]8N7C(=O)[C@@H](NC(=O)OC)C(C)C)nc6c5)ccc4c3)[nH]1)OCCO2)C(C)C`, 8 pM.

For the origin of these results see ChEMBL document CHEMBL3124760, “Inhibitors of NS5A for Treatment of HCV Infection” (ACS Med Chem Lett, 2014).
